The target of test [1] is T1, recombinant human oestrogen receptor (HOR) (Homo sapiens, UniProt P03372).
T1 construct: made in house; host or cells: SF9 insect cells (ATCC CRL1711), baculovirus
T1 sequence (P03372 1-595): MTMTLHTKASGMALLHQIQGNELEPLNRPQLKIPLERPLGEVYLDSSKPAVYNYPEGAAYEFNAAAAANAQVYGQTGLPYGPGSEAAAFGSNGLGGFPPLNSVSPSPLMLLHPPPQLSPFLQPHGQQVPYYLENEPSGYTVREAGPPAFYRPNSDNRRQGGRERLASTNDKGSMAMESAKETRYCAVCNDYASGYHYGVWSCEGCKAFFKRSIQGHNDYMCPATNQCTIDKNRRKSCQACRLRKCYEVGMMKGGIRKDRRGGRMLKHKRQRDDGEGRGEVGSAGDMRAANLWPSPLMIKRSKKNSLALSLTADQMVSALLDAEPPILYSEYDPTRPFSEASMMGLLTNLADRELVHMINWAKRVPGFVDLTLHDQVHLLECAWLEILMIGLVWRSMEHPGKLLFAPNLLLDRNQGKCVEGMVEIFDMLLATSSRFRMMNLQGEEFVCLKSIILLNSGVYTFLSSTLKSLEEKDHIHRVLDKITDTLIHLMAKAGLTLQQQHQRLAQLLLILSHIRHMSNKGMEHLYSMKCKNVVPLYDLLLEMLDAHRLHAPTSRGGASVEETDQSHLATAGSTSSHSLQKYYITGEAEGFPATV
Description: Human oestrogen receptor (HOR): displacement of tritiated oestradiol, relative bond affinity. The following applies: oestradiol = 100, RBA=100(CH)/(CX); for HOR long t relative bond affinity (RBA): incubation 0° C. for 24 hours (long t); for HOR short t relative bond affinity (RBA): incubation 0° C. for 3 hours (short t). It counts as binding. The text has this:
Human Oestrogen Receptor (HOR)
A cytosolic extract of SF9 cells containing the recombinant human oestrogen receptor is obtained by overexpression in an insect-Baculovirus cell system, according to the general methodology described by N. R. WEBB et al. (Journal of Methods in Cell and Molecular Biology, (1990) Vol.2 No. 4, 173-188) and the application of which is described for the expression of human hormonal receptors, for example the human glucocorticoid receptor (G. SRINIVASAN et al. Molecular Endocrinology (1990) vol 4 No. 2 209-216).
The BaculoGold Transfection Kit (PharMingen, reference 21000K) is used to generate the recombinant baculovirus containing the cDNA fragment described in the expression vector HEGO by L. TORA et al. (The EMBO Journal (1989) vol. 8 No. 7 1981-1986), containing the coding region for the wild-type human oestrogen receptor with a glycine in position 400.
The recombinant virus thus obtained is used to express the oestrogen receptor in the SF9 insect cells (ATCC CRL1711), according to the known methodology mentioned previously.
2*10^7 SF9 cells are cultured in a 175 cm^2 “Falcon” flask in the TNM-FH “SIGMA” medium supplemented by 10% of foetal calf serum (FCS) and by 50 microgram/ml of gentamycin. After infection then incubation at 27° C. for 40 to 42 hours, the cells are lysed in 1 ml of lysis buffer (Tris 20 mM-HCl pH8, EDTA 0.5 mM, DTT 2 mM, Glycerol 20%, KCl 400 mM) with a freezing-thawing cycle which is repeated another two times. The supernatant, containing the recombinant human oestrogen receptor is kept in liquid nitrogen by 0.5 ml doses.
The supernatant is incubated at 0° C. for 24 hours (long t) or 3 hours (short t) with a constant concentration (T) of tritiated oestradiol in the presence of increasing concentrations of either unlabelled oestradiol (0-1000×10^−9M), or of unlabelled product to be tested (0-25000×10^−9M). The concentration of bound tritiated oestradiol (B) is then measured in each incubate by the technique of adsorption with carbon dextran.
(§1) Calculation of the Relative Bond Affinity (RBA):
(§2) The following two curves are drawn: the percentage of bound tritiated hormone 100×B/B0 as a function of the logarithm of the concentration of unlabelled reference hormone or as a function of the concentration of unlabelled test product.
(§3) The straight line of the equation
(§4) B0=concentration of bound tritiated hormone in the absence of any unlabelled product.
(§5) B=concentration of bound tritiated hormone in the presence of a concentration X of unlabelled product.
(§6) B min=concentration of bound tritiated hormone for an incubation of this tritiated hormone at a concentration (T) in the presence of a large excess of unlabelled reference hormone (1000×10^−9M) for the human receptor.
(§7) The intersections of the straight line I50 and the curves allow the evaluation of the concentrations of unlabelled reference hormone (CH) and of the unlabelled test product (CX) which inhibit by 50% the binding of the tritiated hormone on the receptor.
(§8) The relative bond affinity (RBA) of the test product is calculated by the equation: RBA=100(CH)/(CX).

Test [2] addresses T2, Oestrogen Receptor of a Rat's Uterus (ROR) (Rattus norvegicus, UniProt P06211).
T2 construct: the uteri are removed, then homogenized at 0° C; from tissue; host or cells: rat uterus cytosol (ultracentrifugation supernatant of homogenate)
T2 sequence (P06211 1-600): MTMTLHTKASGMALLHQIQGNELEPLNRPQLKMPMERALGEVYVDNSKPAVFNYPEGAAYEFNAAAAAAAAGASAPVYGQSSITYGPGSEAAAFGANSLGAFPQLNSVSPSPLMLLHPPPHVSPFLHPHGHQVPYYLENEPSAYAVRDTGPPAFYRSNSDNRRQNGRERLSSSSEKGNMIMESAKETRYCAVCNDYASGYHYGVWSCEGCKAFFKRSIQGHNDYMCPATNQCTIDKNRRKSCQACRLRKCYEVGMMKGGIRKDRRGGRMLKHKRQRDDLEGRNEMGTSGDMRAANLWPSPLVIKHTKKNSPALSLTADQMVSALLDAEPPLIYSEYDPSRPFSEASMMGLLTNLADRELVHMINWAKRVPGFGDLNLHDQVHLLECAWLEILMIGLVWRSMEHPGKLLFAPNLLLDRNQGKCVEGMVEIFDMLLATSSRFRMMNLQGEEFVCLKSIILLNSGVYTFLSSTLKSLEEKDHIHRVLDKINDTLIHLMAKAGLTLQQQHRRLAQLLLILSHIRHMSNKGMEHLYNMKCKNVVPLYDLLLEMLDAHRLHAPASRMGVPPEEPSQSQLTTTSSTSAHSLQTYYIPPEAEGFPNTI
Description: Oestrogen receptor of a rat's uterus (ROR): displacement of tritiated oestradiol, relative bond affinity. The class given is binding. The following applies: oestradiol = 100; RBA=100(CH)/(CX); rat uterus cytosol, incubation 0° C. for 24 hours. As to the method: Oestrogen Receptor of a Rat's Uterus (ROR):
Female rats of 280-300 g and castrated 24 hours beforehand, are sacrificed, the uteri are removed, then homogenized at 0° C., using a teflon-glass Potter in a buffered solution BS (10 mM Tris, 0.25 M saccharose, HCl pH 7.4) (1 g of tissue per 10 ml of BS). The homogenate is then ultracentrifuged (209,000 g×30mn.) at 0° C. The supernatant aliquots thus obtained are incubated at 0° C. for 24 hours, with a constant concentration (2.5 10^−9M) of tritiated oestrodiol in the presence of increasing concentrations either of unlabelled oestradiol (0-1000×10^−9M), or of unlabelled product to be tested […]. The concentration of bound tritiated oestradiol (B) is then measured in each incubate by the carbon-dextran adsorption technique.
as §1, §2, §3, §4, §5, §6, §7, §8

As for `O=Cc1cc(Br)c(-c2ccc(O)cc2)c(Br)c1` [Example 1, 2,6-dibromo-4′-hydroxy-(1,1′-biphenyl)-4-carboxaldehyde], the “HOR long t relative bond affinity (RBA)” value in test [1] came to 5.5.

Regarding `OCc1cc(Br)c(-c2ccc(O)cc2)c(Br)c1` [Example 2, 2,6-dibromo-4′-hydroxy-(1,1′-biphenyl)-4-methanol], in test [1], the “HOR short t relative bond affinity (RBA)” value came out at 425 and the “HOR long t relative bond affinity (RBA)” value was determined as 74. Also, in test [2], the “ROR relative bond affinity (RBA)” value stood at 12.5.

`O=[N+]([O-])c1cc(CO)cc(Br)c1-c1ccc(O)cc1` [Example 18, 2-bromo-4′-hydroxy-6-nitro-(1,1′-biphenyl)-4-methanol]: the “HOR long t relative bond affinity (RBA)” value in test [1] turned out to be 34. The “ROR relative bond affinity (RBA)” value in test [2] was 5.

Regarding `OCc1cc(Cl)c(-c2ccc(O)cc2)c(C(F)(F)F)c1` [Example 7, 2-chloro-4′-hydroxy-6-(trifluoromethyl)-(1,1′-biphenyl)-4-methanol], in test [1], the “HOR long t relative bond affinity (RBA)” value is listed as 50. For the same molecule, the “ROR relative bond affinity (RBA)” value in test [2] turned out to be 9.5.

Take `Cc1ccc(-c2ccc(O)cc2)c(C(F)(F)F)c1` [Example 29, 4′-methyl-2′-trifluoromethyl-(1,1′-biphenyl)-4-ol]: the “HOR long t relative bond affinity (RBA)” value in test [1] was 0.6. For the same molecule, the “ROR relative bond affinity (RBA)” value in test [2] worked out at 0.15.

On to `OCc1cc(Cl)c(-c2ccc(O)cc2)c(Cl)c1` [Example 24, 2,6-dichloro-4′-hydroxy-(1,1′-biphenyl)-4-methanol], for which, in test [1], the “HOR short t relative bond affinity (RBA)” value came to 104 and the “HOR long t relative bond affinity (RBA)” value turned out to be 35. For the same molecule, the “ROR relative bond affinity (RBA)” value in test [2] is recorded as 3.

For `CCc1cc(C(C)C)c(-c2ccc(O)cc2)cc1C` [Example 6, 4′-ethyl-5′-methyl-2′-(1-methylethyl)-(1,1′-biphenyl)-4-ol], in test [1], the “HOR long t relative bond affinity (RBA)” value was 4.5.

As to `O=Cc1cc(Cl)c(-c2ccc(O)cc2)c(Cl)c1` [Example 25, 2,6-dichloro-4′-hydroxy-(1,1′-biphenyl)-4-carboxaldehyde], in test [1], the “HOR short t relative bond affinity (RBA)” value was determined as 12 and the “HOR long t relative bond affinity (RBA)” value is recorded as 5.

As to `OCc1ccc(-c2ccc(O)cc2)c(C(F)(F)F)c1` [Example 28, 4′-hydroxy-2-trifluoromethyl-(1,1′-biphenyl)-4-methanol], in test [1], the “HOR short t relative bond affinity (RBA)” value is listed as 33 and the “HOR long t relative bond affinity (RBA)” value was 8. Further, the “ROR relative bond affinity (RBA)” value in test [2] was 2.

As to `OCc1c(Cl)c(Cl)c(-c2ccc(O)cc2)c(Cl)c1Cl` [Example 26, 4′-hydroxy-2.3,5,6-tetrachloro-(1,1′-biphenyl)-4-methanol], the “HOR long t relative bond affinity (RBA)” value in test [1] came to 5.5.

Turning to `CC(C)c1cc(CO)cc(Cl)c1-c1ccc(O)cc1` [Example 4, 2-chloro-4′-hydroxy-6-(1-methylethyl)-(1,1′-biphenyl)-4-methanol], in test [1], the “HOR long t relative bond affinity (RBA)” value is on record as 22. The “ROR relative bond affinity (RBA)” value in test [2] was determined as 4.

Turning to `OCc1cc(Cl)c(-c2ccc(O)c(Cc3ccccc3)c2)c(Cl)c1` [Example 36, 2,6-dichloro-4′-hydroxy-5′-(phenylmethyl)-(1,1′-biphenyl)-4-methanol], the “HOR long t relative bond affinity (RBA)” value in test [1] is on record as 0.07. In addition, the “ROR relative bond affinity (RBA)” value in test [2] is on record as 8.

Consider `Cc1c(C(C)O)cc(C(C)C)c(-c2ccc(O)cc2)c1Cl` (stereo not drawn) [Example 13, 1-[2-chloro-4′-hydroxy-3-methyl-6-(1-methylethyl)-(1,1′-biphenyl-4-yl)]-ethanol], for which, in test [1], the “HOR short t relative bond affinity (RBA)” value turned out to be 24 and the “HOR long t relative bond affinity (RBA)” value is 7.5. The “ROR relative bond affinity (RBA)” value in test [2] stood at 0.8.

As to `O=[N+]([O-])c1cc(CO)cc([N+](=O)[O-])c1-c1ccc(O)cc1` [Example 30, 2,6-dinitro-4′-hydroxy-(1,1′-biphenyl)-4-methanol], in test [1], the “HOR short t relative bond affinity (RBA)” value amounted to 24 and the “HOR long t relative bond affinity (RBA)” value was determined as 5. Moreover, in test [2], the “ROR relative bond affinity (RBA)” value turned out to be 2.

The values are drawn from patent US6794415B2, “Biphenyl compounds and their use as oestrogenic agents” (Aventis Pharma S.A., priority 1996, dated 2004).
